Results from PubChem BioAssay (NCI).
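Assay format: 96-well plates, 48-hour exposure. GI50 is the concentration that inhibits growth by half. TGI: total growth inhibition.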

Experiments:
Assay in all cases: NCI tumour cell line growth inhibition, 48 h
U251 CNS = system: U251 CNS
SNB-19 CNS = system: SNB-19 CNS
HCC-2998 colon = system: HCC-2998 colon
A498 renal = system: A498 renal
BT-549 breast = system: BT-549 breast
OVCAR-4 ovarian = system: OVCAR-4 ovarian
MDA-MB-435 = system: MDA-MB-435
SF-539 CNS = system: SF-539 CNS
NCI-H460 lung = system: NCI-H460 lung
MOLT-4 leukemia = system: MOLT-4 leukemia
SK-MEL-28 melanoma = system: SK-MEL-28 melanoma
TK-10 renal = system: TK-10 renal
786-0 renal = system: 786-0 renal
MALME-3M melanoma = system: MALME-3M melanoma
UACC-257 melanoma = system: UACC-257 melanoma
SF-295 CNS = system: SF-295 CNS
SN12C renal = system: SN12C renal
NCI-H226 lung = system: NCI-H226 lung
HOP-62 NSCLC = system: HOP-62 NSCLC
HCT-15 colon = system: HCT-15 colon
IGROV1 ovarian = system: IGROV1 ovarian
HCT-116 colon = system: HCT-116 colon
RXF 393 renal = system: RXF 393 renal
OVCAR-8 ovarian = system: OVCAR-8 ovarian
RPMI-8226 leukemia = system: RPMI-8226 leukemia
UACC-62 melanoma = system: UACC-62 melanoma
SK-MEL-5 melanoma = system: SK-MEL-5 melanoma
CCRF-CEM leukemia = system: CCRF-CEM leukemia
SNB-75 CNS = system: SNB-75 CNS
LOX IMVI melanoma = system: LOX IMVI melanoma
ACHN renal = system: ACHN renal
OVCAR-5 ovarian = system: OVCAR-5 ovarian
SR leukemia = system: SR leukemia
HOP-92 NSCLC = system: HOP-92 NSCLC
MCF7 breast = system: MCF7 breast
HL-60(TB) leukemia = system: HL-60(TB) leukemia
DU-145 prostate = system: DU-145 prostate
MDA-MB-231 breast = system: MDA-MB-231 breast
UO-31 renal = system: UO-31 renal
K-562 leukemia = system: K-562 leukemia
NCI-H522 lung = system: NCI-H522 lung
HT29 colon = system: HT29 colon
NCI/ADR-RES ovarian = system: NCI/ADR-RES ovarian
HS 578T breast = system: HS 578T breast
CAKI-1 renal = system: CAKI-1 renal
SW-620 colon = system: SW-620 colon
SF-268 CNS = system: SF-268 CNS
SK-OV-3 ovarian = system: SK-OV-3 ovarian
NCI-H23 lung = system: NCI-H23 lung
COLO 205 colon = system: COLO 205 colon
SK-MEL-2 melanoma = system: SK-MEL-2 melanoma
EKVX NSCLC = system: EKVX NSCLC
OVCAR-3 ovarian = system: OVCAR-3 ovarian
M14 melanoma = system: M14 melanoma
A549 NSCLC = system: A549 NSCLC
PC-3 prostate = system: PC-3 prostate

In the case of C=C1C(=O)O[C@@H]2C[C@@H](C)/C=C\C(=O)[C@](C)(OC(C)=O)C[C@H](OC(=O)/C(C)=C\C)[C@@H]12, the GI50 (U251 CNS) is reported as 3.7 µM, the TGI (U251 CNS) is reported as 8.64 µM and the GI50 (SNB-19 CNS) is reported as 11.5 µM. For the same compound, the TGI (SNB-19 CNS) was over 25 µM, the GI50 (HCC-2998 colon) was 4.14 µM and the TGI (HCC-2998 colon) was 8.31 µM. It also gave a GI50 (A498 renal) of 6.15 µM, a TGI (A498 renal) of 13.5 µM and a GI50 (BT-549 breast) of 3.02 µM. The TGI (BT-549 breast) was 6.31 µM, the GI50 (OVCAR-4 ovarian) was 1.58 µM and the TGI (OVCAR-4 ovarian) was 8.48 µM. It also gave a GI50 (MDA-MB-435) of 3.91 µM, a TGI (MDA-MB-435) of 12.4 µM and a GI50 (SF-539 CNS) of 3.19 µM. It also gave a TGI (SF-539 CNS) of 6.52 µM, a GI50 (NCI-H460 lung) of 7.02 µM and a TGI (NCI-H460 lung) of 23.6 µM. The GI50 (MOLT-4 leukemia) was 0.896 µM, the TGI (MOLT-4 leukemia) was 4.25 µM and the GI50 (SK-MEL-28 melanoma) was 1.81 µM. The TGI (SK-MEL-28 melanoma) was 5.49 µM, the GI50 (TK-10 renal) was 0.996 µM and the TGI (TK-10 renal) was 3.32 µM. The GI50 (786-0 renal) was 2.66 µM, the TGI (786-0 renal) was 5.93 µM and the GI50 (MALME-3M melanoma) was 1.1 µM. The TGI (MALME-3M melanoma) was 5.11 µM, the GI50 (UACC-257 melanoma) was 2.66 µM and the TGI (UACC-257 melanoma) was 6.77 µM. For the same compound, the GI50 (SF-295 CNS) was 7.73 µM, the TGI (SF-295 CNS) was 20.2 µM and the GI50 (SN12C renal) was 5.73 µM. The TGI (SN12C renal) was over 25 µM, the GI50 (NCI-H226 lung) was 3.48 µM and the TGI (NCI-H226 lung) was 6.83 µM. It also gave a GI50 (HOP-62 NSCLC) of 7.2 µM, a TGI (HOP-62 NSCLC) of 20.7 µM and a GI50 (HCT-15 colon) of 0.675 µM. It also gave a TGI (HCT-15 colon) of 2.13 µM, a GI50 (IGROV1 ovarian) of 4.31 µM and a TGI (IGROV1 ovarian) of 9.91 µM. The GI50 (HCT-116 colon) was 0.835 µM, the TGI (HCT-116 colon) was 3.13 µM and the GI50 (RXF 393 renal) was 0.683 µM. For the same compound, the TGI (RXF 393 renal) was 1.87 µM, the GI50 (OVCAR-8 ovarian) was 1.11 µM and the TGI (OVCAR-8 ovarian) was 23.9 µM. It also gave a GI50 (RPMI-8226 leukemia) of 0.893 µM, a TGI (RPMI-8226 leukemia) of 2.94 µM and a GI50 (UACC-62 melanoma) of 1.55 µM. The TGI (UACC-62 melanoma) was 5.93 µM, the GI50 (SK-MEL-5 melanoma) was 3.7 µM and the TGI (SK-MEL-5 melanoma) was 7.25 µM. It also gave a GI50 (CCRF-CEM leukemia) of 0.834 µM, a TGI (CCRF-CEM leukemia) of 4.41 µM and a GI50 (SNB-75 CNS) of 4.07 µM. The TGI (SNB-75 CNS) was 17.6 µM, the GI50 (LOX IMVI melanoma) was 2.88 µM and the TGI (LOX IMVI melanoma) was 6.18 µM. For the same compound, the GI50 (ACHN renal) was 0.466 µM, the TGI (ACHN renal) was 0.885 µM and the GI50 (OVCAR-5 ovarian) was 2.53 µM. For the same compound, the TGI (OVCAR-5 ovarian) was 5.97 µM, the GI50 (SR leukemia) was 0.845 µM and the TGI (SR leukemia) was 5.2 µM. For the same compound, the GI50 (HOP-92 NSCLC) was 3.74 µM, the TGI (HOP-92 NSCLC) was 8.05 µM and the GI50 (MCF7 breast) was 0.971 µM. The TGI (MCF7 breast) was 5.6 µM, the GI50 (HL-60(TB) leukemia) was 1 µM and the TGI (HL-60(TB) leukemia) was 5.75 µM. It also gave a GI50 (DU-145 prostate) of 2.52 µM, a TGI (DU-145 prostate) of 6.12 µM and a GI50 (MDA-MB-231 breast) of 1.7 µM. The TGI (MDA-MB-231 breast) was 5.89 µM, the GI50 (UO-31 renal) was 2.91 µM and the TGI (UO-31 renal) was 6 µM. It also gave a GI50 (K-562 leukemia) of 0.978 µM, a TGI (K-562 leukemia) of over 25 µM and a GI50 (NCI-H522 lung) of 0.508 µM. The TGI (NCI-H522 lung) was 1.22 µM, the GI50 (HT29 colon) was 1.06 µM and the TGI (HT29 colon) was 4 µM. The GI50 (NCI/ADR-RES ovarian) was 2.8 µM, the TGI (NCI/ADR-RES ovarian) was over 25 µM and the GI50 (HS 578T breast) was 12.3 µM. For the same compound, the TGI (HS 578T breast) was over 25 µM, the GI50 (CAKI-1 renal) was 1.09 µM and the TGI (CAKI-1 renal) was 3.97 µM. The GI50 (SW-620 colon) was 1.01 µM, the TGI (SW-620 colon) was 3.54 µM and the GI50 (SF-268 CNS) was 5.38 µM. It also gave a TGI (SF-268 CNS) of 20.8 µM, a GI50 (SK-OV-3 ovarian) of 11.1 µM and a TGI (SK-OV-3 ovarian) of over 25 µM. For the same compound, the GI50 (NCI-H23 lung) was 1.21 µM, the TGI (NCI-H23 lung) was 5.95 µM and the GI50 (COLO 205 colon) was 0.75 µM. The TGI (COLO 205 colon) was 2.6 µM, the GI50 (SK-MEL-2 melanoma) was 4.45 µM and the TGI (SK-MEL-2 melanoma) was 12.1 µM. For the same compound, the GI50 (EKVX NSCLC) was 2.63 µM, the TGI (EKVX NSCLC) was 6.27 µM and the GI50 (OVCAR-3 ovarian) was 0.94 µM. For the same compound, the TGI (OVCAR-3 ovarian) was 3.2 µM, the GI50 (M14 melanoma) was 3.69 µM and the TGI (M14 melanoma) was 11 µM. The GI50 (A549 NSCLC) was 7.78 µM, the TGI (A549 NSCLC) was 24.2 µM and the GI50 (PC-3 prostate) was 4.77 µM. For the same compound, the TGI (PC-3 prostate) was 13.7 µM.
